pIC50: −log10 of the molar value. Like-named read-outs stand apart in the source and are kept apart here.
What was measured:
recombinant His-CHK1 = biological target: T1, recombinant His-CHK1 (Homo sapiens, UniProt O14757); assay: CHK1 In Vitro Kinase Assay
T1 sequence (O14757 1-265 limits assumed): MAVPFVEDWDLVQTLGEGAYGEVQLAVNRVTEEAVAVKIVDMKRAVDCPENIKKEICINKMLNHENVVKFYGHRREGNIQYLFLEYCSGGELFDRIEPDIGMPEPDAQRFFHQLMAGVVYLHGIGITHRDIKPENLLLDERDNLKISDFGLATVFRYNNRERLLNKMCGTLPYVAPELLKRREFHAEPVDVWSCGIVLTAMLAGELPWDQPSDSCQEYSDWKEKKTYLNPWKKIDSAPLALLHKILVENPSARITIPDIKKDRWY

Cyclin E/CDK2 = biological target: T2, Cyclin E/CDK2 (Homo sapiens, UniProt P24941); assay: In Vitro Cyclin E/CDK2 Kinase Assay; assay type: biochemical
T2 construct: made in house; host or cells: SF9 cells, baculovirus co-infection
Excerpt: Cyclin E was cloned into pVL1393 (Pharmingen, La Jolla, Calif.) by PCR, with the addition of 5 histidine residues at the amino-terminal end to allow purification on nickel resin. The expressed protein was approximately 45 kDa. CDK2 was cloned into pVL1393 by PCR, with the addition of a haemaglutinin epitope tag at the carboxy-terminal end (YDVPDYAS). The expressed protein was approximately 34 kDa in size.
Recombinant baculoviruses expressing cyclin E and CDK2 were co-infected into SF9 cells at an equal multiplicity of infection (MOI=5), for 48 hrs. Cells were harvested by centrifugation at 1000 RPM for 10 minutes, then pellets lysed on ice for 30 minutes in five times the pellet volume of lysis buffer containing 50 mM Tris pH 8.0, 150 mM NaCl, 1% NP40, 1 mM DTT and protease inhibitors (Roche Diagnostics GmbH, Mannheim, Germany). Lysates were spun down at 15000 RPM for 10 minutes and the supernatant retained. 5 mL of nickel beads (for one liter of SF9 cells) were washed three times in lysis buffer (Qiagen GmbH, Germany). Imidazole was added to the baculovirus supernatant to a final concentration of 20 mM, then incubated with the nickel beads for 45 minutes at 4° C. Proteins were eluted with lysis buffer containing 250 mM imidazole. Eluate was dialyzed about 15 hours in 2 liters of kinase buffer containing 50 mM Tris pH 8.0, 1 mM DTT, 10 mM MgCl2, 100 μM sodium orthovanadate and 20% glycerol. Enzyme was stored in aliquots at −70° C.
Cyclin E/CDK2 kinase assays can be performed as described below in low protein binding 96-well plates (Corning Inc, Corning, N.Y.).
The substrate used in these reactions is a biotinylated peptide derived from Histone H1 (from Amersham, UK). The substrate is thawed on ice and diluted to 2 μM in kinase buffer. Test compounds are diluted in 10% DMSO to desirable concentrations. For each kinase reaction, 20 μL of the 50 μg/mL enzyme solution (1 μg of enzyme) and 20 μl of the 2 μM substrate solution are mixed, then combined with 10 μL of diluted compound in each well for testing. The kinase reaction is initiated by addition of 50 μL of 2 μM ATP and 0.1 μCi of ^33P-ATP (from Amersham, UK). The reaction is allowed to run for 1 hour at room temperature, then is stopped by adding 200 μL of stop buffer containing 0.1% Triton X-100, 1 mM ATP, 5 mM EDTA, and 5 mg/mL streptavidine coated SPA beads (from Amersham, UK) for 15 minutes. The SPA beads are then captured onto a 96-well GFIB filter plate (Packard/Perkin Elmer Life Sciences) using a Filtermate universal harvester (Packard/Perkin Elmer Life Sciences.). Non-specific signals are eliminated by washing the beads twice with 2M NaCl then twice with 2 M NaCl with 1% phosphoric acid. The radioactive signal can then be measured using, for example, a TopCount 96 well liquid scintillation counter (from Packard/Perkin Elmer Life Sciences).

mTOR enzyme = mTOR enzyme (Homo sapiens, UniProt P42345); assay: mTOR Kinase Assay; assay type: biochemical
Protocol: The mTOR assay buffer contains 10 mM hepes (pH 7.4), 50 mM NaCl, 100 μg/ml BSA, 50 mM B-glycerophosphate, 10 mM MnCl2 and 0.5 mM DTT. 20 ng of mTOR enzyme is preincubated with the compound for 10 minutes. 5 μM ATP and 0.1 μM GSTS6K is added. The reaction is incubated for one hour at 30° C. Anti phospho p70S6K (about 1.7 ng/well) and anti GSTXL665 (1:1 Ratio with the substrate GSTS6K) are added after incubating. The plates are read at least 2 hours after adding the anti phospho p70S6K and the anti GSTXL665.

SMILES	pIC50 (recombinant His-CHK1)	pIC50 (Cyclin E/CDK2; rated A-F)	pIC50 (mTOR enzyme; rated A-F)	pIC50 (mTOR enzyme)	pIC50 (Cyclin E/CDK2)
Nc1c(Br)c([C@H]2CC[C@H](C(=O)O)CC2)nc2c(-c3ccc(-c4cccnc4)nc3)cnn12 [Compound 4.11]	< 5.30	< 5.30	> 7.00	–	–
Nc1c(Br)c(N2CCC[S+]([O-])CC2)nc2c(-c3cnc4ccccc4c3)cnn12 (stereo not shown) [Compound 10.63]	< 5.30	< 5.30	> 7.00	–	–
Nc1c(Br)c(N2CCc3[nH]cnc3C2)nc2c(-c3cnc4ccccc4c3)cnn12 [Compound 10.19]	< 5.30	< 5.30	> 7.00	–	–
CS(=O)(=O)N1CCC(c2cc(N)n3ncc(-c4cnc5ccccc5c4)c3n2)C1 (stereo not shown) [Compound 8.17]	< 5.30	< 5.30	> 7.00	–	–
Nc1cc(C2CCC(C(=O)O)NC2)nc2c(-c3cn[nH]c3)cnn12 (stereo not shown) [Compound 1.5]	< 5.30	< 5.30	> 7.00	–	–
Nc1c(Br)c(C2CCS(=O)(=O)CC2)nc2c(-c3cnc4ccccc4c3)cnn12 [Compound 8.15]	< 5.30	< 5.30	> 7.00	–	–
Nc1c(Br)c(-c2ccc(CC(=O)O)cc2)nc2c(-c3cnc4ccccc4c3)cnn12 [Compound 11.1, [4-(7-Amino-6-bromo-3-quinolin-3-yl-pyrazolo[1,5-a]pyrimidin-5-yl)-phenyl]-acetic acid]	–	–	–	7.83	–
CS(=O)(=O)N1CCC(c2nc3c(-c4cnc5ccccc5c4)cnn3c(N)c2Br)C1 (stereo not shown) [Compound 8.1]	< 5.30	< 5.30	> 7.00	–	–
Nc1c(Cl)c(N2CCN3C(=O)NC(=O)C3C2)nc2c(-c3cnc4ccccc4c3)cnn12 (stereo not shown) [Compound 10.61]	< 5.30	< 5.30	> 7.00	–	–
Nc1cc(CN2CCN3C(=O)NC(=O)C3C2)nc2c(-c3cnc4ccccc4c3)cnn12 (stereo not shown) [Compound 13.3]	< 5.30	< 5.30	6.30 to 6.70	–	–
COC(=O)C1CCC(c2nc3c(-c4cnc5ccccc5c4)cnn3c(N)c2Br)CN1 (stereo not shown) [Compound 2.3, Methyl 5-(7-amino-6-bromo-3-(quinolin-3-yl)pyrazolo[1,5-a]pyrimidin-5-yl)piperidine-2-carboxylate]	5.30 to 6.00	< 5.30	> 7.00	–	–
N#Cc1c(C2CCC(CC(=O)O)CC2)nc2c(-c3cnc4ccccc4c3)cnn2c1N (stereo not shown) [Compound 6.6, [4-(7-Amino-6-cyano-3-quinolin-3-yl-pyrazolo[1,5-a]pyrimidin-5-yl)-cyclohexyl]-acetic acid]	–	–	–	8.85	–
Nc1cc(C2CCC(C(=O)O)NC2)nc2c(-c3cnc4ccccc4c3)cnn12 (stereo not shown) [Compound 1.1, 5-(7-amino-3-(quinolin-3-yl)pyrazolo[1,5-a]pyrimidin-5-yl)piperidine-2-carboxylic acid]	–	–	–	7.91	–
Nc1c(Br)c(N2CCCS(=O)(=O)CC2)nc2c(-c3cnc4ccccc4c3)cnn12 [Compound 10.64]	< 5.30	< 5.30	> 7.00	–	–
Cn1cc(-c2cnn3c(N)cc(C4CCC(C(=O)O)NC4)nc23)cn1 (stereo not shown) [Compound 1.2]	–	–	–	6.84	–
CS(=O)(=O)NC(=O)C[C@H]1CC[C@@H](c2nc3c(-c4cnc5ccccc5c4)cnn3c(N)c2Br)CC1 [Compound 7.2, 2-(4-(7-amino-6-bromo-3-(quinolin-3-yl)pyrazolo[1,5-a]pyrimidin-5-yl)cyclohexyl)-N-(methylsulfonyl)acetamide]	< 5.30	< 5.30	> 7.00	–	–
COC(=O)C1CCC(c2cc(N)n3ncc(-c4cnn(C)c4)c3n2)CN1 (stereo not shown) [Compound 2.8]	5.30 to 6.00	< 5.30	6.00 to 6.30	–	–
Nc1c(Br)c(N2CCN3C(=O)NC(=O)C3C2)nc2c(-c3cnc4ccccc4c3)cnn12 (stereo not shown) [Compound 10.60]	< 5.30	< 5.30	> 7.00	–	–

SMILES	pIC50 (recombinant His-CHK1)	pIC50 (Cyclin E/CDK2; rated A-F)	pIC50 (mTOR enzyme; rated A-F)	pIC50 (mTOR enzyme)	pIC50 (Cyclin E/CDK2)
Nc1c(Br)c(C2CCC(C(=O)O)NC2)nc2c(-c3cnc4ccccc4c3)cnn12 (stereo not shown) [Compound 2.2, 5-(7-amino-6-bromo-3-(quinolin-3-yl)pyrazolo[1,5-a]pyrimidin-5-yl)piperidine-2-carboxylic acid]	< 5.30	< 5.30	> 7.00	–	–
COC(=O)[C@@H]1CC[C@H](c2cc(N)n3ncc(-c4cnn(C)c4)c3n2)CN1 (stereo in doubt) [Compound 2.5]	6.00 to 6.30	< 5.30	6.70 to 7.00	–	–
Nc1c(Br)c(C2CCC3(CC2)OCCO3)nc2c(-c3cnc4ccccc4c3)cnn12 [Compound 6.7]	< 5.30	–	> 7.00	–	–
CS(=O)(=O)N1CCC(c2nc3c(-c4cnc5ccccc5c4)cnn3c(N)c2Br)CC1 [Compound 8.18]	< 5.30	5.30 to 6.00	> 7.00	–	–
Nc1c(Br)c(CN2CCN3C(=O)NC(=O)C3C2)nc2c(-c3cnc4ccccc4c3)cnn12 (stereo not shown) [Compound 13.4]	< 5.30	< 5.30	> 7.00	–	–
COC(=O)C1CCC(c2nc3c(-c4cnn(C)c4)cnn3c(N)c2Br)CN1 (stereo not shown) [Compound 2.4]	6.70 to 7.00	< 5.30	> 7.00	–	–
Nc1c(Br)c(C2CCC(CC(=O)O)CC2)nc2c(-c3cnc4ccccc4c3)cnn12 (single isomer, unassigned) [Compound 5.4, 2-(4-(7-amino-6-bromo-3-(quinolin-3-yl)pyrazolo[1,5-a]pyrimidin-5-yl)cyclohexyl)acetic acid]	< 5.30	< 5.30	> 7.00	–	–
CC(=O)N1CCC(c2nc3c(-c4cnc5ccccc5c4)cnn3c(N)c2Br)C1 (stereo not shown) [Compound 8.7]	< 5.30	–	> 7.00	–	–
Cn1cc(-c2cnn3c(N)c(Br)c(C4CCC(C(=O)O)C4)nc23)cn1 (stereo not shown) [Compound 4.5]	< 5.30	< 5.30	6.70 to 7.00	–	–
Nc1c(Br)c([C@H]2CC[C@H]3C(=O)NC(=O)N3C2)nc2c(-c3cnc4ccccc4c3)cnn12 [Compound 3.10]	< 5.30	6.00 to 6.30	> 7.00	–	–
Nc1c(Br)c(N2CCC(CC(=O)O)CC2)nc2c(-c3cnc4ccccc4c3)cnn12 [Compound 10.47]	4.66	–	–	7.95	5.00
Nc1c(Br)c(CN2CCOCC2)nc2c(-c3cnc4ccccc4c3)cnn12 [Compound 13.2, 6-bromo-5-(morpholinomethyl)-3-(quinolin-3-yl)pyrazolo[1,5-a]pyrimidin-7-amine]	< 5.30	< 5.30	> 7.00	–	–
CN(C)C(=O)C1CCC(c2cc(N)n3ncc(-c4cnn(C)c4)c3n2)CN1 (stereo not shown) [Compound 2.9]	< 5.30	–	5.30 to 6.00	–	–
Nc1c(Br)c(CNC2CCOCC2)nc2c(-c3cnc4ccccc4c3)cnn12 [Compound 13.16]	< 5.30	< 5.30	> 7.00	–	–
Nc1c(Br)c(N2CCS(=O)(=O)CC2)nc2c(-c3cnc4ccccc4c3)cnn12 [Compound 10.31]	< 5.30	< 5.30	> 7.00	–	–
Nc1c(Br)c([C@H]2CC[C@H](C(=O)O)CC2)nc2c(-c3ccc(-c4ccncc4)nc3)cnn12 [Compound 4.12]	< 5.30	< 5.30	> 7.00	–	–
COC(=O)[C@@H]1CC[C@H](c2nc3c(-c4cnc5ccccc5c4)cnn3c(N)c2Br)CN1 (stereo in doubt) [Compound 2.6]	5.30 to 6.00	< 5.30	> 7.00	–	–

— US8591943B2, “Pyrazolo[1,5-a]pyrimidine derivatives as mTOR inhibitors” (Merck Sharp & Dohme Corp., priority 2009, dated 2013)
